Laboratory results published in patent publication US10369122B2, “Benzene-1,3,5-tricarboxamide derivatives and uses thereof” (OHIO STATE INNOVATION FOUNDATION, priority 2015, dated 2019).

Test system: Hep3B cells
Assay: TT LLNs-mediated luciferase transfection assay
Assay type: cell-based, human
Settings: for K1 (average luminescence intensity, Kn = ΣRLIn/4): level 1 of the component; for K2 (average luminescence intensity, Kn = ΣRLIn/4): level 2 of the component; for K3 (average luminescence intensity, Kn = ΣRLIn/4): level 3 of the component; for K4 (average luminescence intensity, Kn = ΣRLIn/4): level 4 of the component
Experimental: R. et. al. J. Am. Chem. Soc. 2011, 133, 8995-9004). After formulation, the freshly formed […] were used immediately for cell transfection. For in vivo studies, the freshly prepared LLNs were then dialyzed against PBS buffer using Slide-A-Lyzer dialysis cassettes (3.5 K MWCO, Life Technologies, Grand island, N.Y.). […] Entrapment efficiency of LLNs was determined using the Ribogreen assay reported previously (Love Kevin, T. et. al. Proc. Natl. Acad. Sci. […] Chen, D. et. al. J. Am. Chem. Soc. 2012, 134, 6948-6951). TT LLNs-Mediated Luciferase Transfection Assay. The human hepatocellular carcinoma cell line Hep3B was purchased from American Type Culture Collection (Manassas, Va.) and maintained at 37° C. with 5% CO2 in Eagle's Minimum Essential Medium (MEM) supplemented with 10% heat inactivated FBS. […] Transfections were performed in triplicate. After 6 h of transfection, culture medium containing TT LLNs was carefully removed, and 50 μL of serum-free EMEM and 50 μL of Bright-Glo luciferase substrate were mixed and added to each well. […] Free Flue mRNA served as a negative control. Orthogonal Array Experimental Design. In order to identify a preferred molar ratio of the formulation components, an orthogonal array experiment design was utilized. Four formulation components were assigned in the following orthogonal experiments with a fixed TT/mRNA ratio (10/1). TT3S-DOPE LLNs 1-1 to 1-16 were prepared according to the orthogonal array design table L16(4)^4 and used to transfect Hep3B cells (Table 2). […] On the basis of the result of the first round of nanoparticle formulation, the levels of each factor were further refined, and the second round orthogonal experiment with 16 formulations TT3-DOPE LLNs 2-1 to 2-16 was conducted (Table 4). A similar analysis was performed as described above.

Molecule	ΔK = Kmax − Kmin (impact of the component on mRNA delivery) (first round of TT3-DOPE LLNs)	K1 (average luminescence intensity, Kn = ΣRLIn/4) (first round of TT3-DOPE LLNs)	K2 (average luminescence intensity, Kn = ΣRLIn/4) (first round of TT3-DOPE LLNs)	K3 (average luminescence intensity, Kn = ΣRLIn/4) (first round of TT3-DOPE LLNs)	K4 (average luminescence intensity, Kn = ΣRLIn/4) (first round of TT3-DOPE LLNs)	ΔK = Kmax − Kmin (impact of the component on mRNA delivery) (second round of TT3-DOPE LLNs)	K1 (average luminescence intensity, Kn = ΣRLIn/4) (second round of TT3-DOPE LLNs)	K2 (average luminescence intensity, Kn = ΣRLIn/4) (second round of TT3-DOPE LLNs)	K3 (average luminescence intensity, Kn = ΣRLIn/4) (second round of TT3-DOPE LLNs)	K4 (average luminescence intensity, Kn = ΣRLIn/4) (second round of TT3-DOPE LLNs)
CCCCCCCC/C=C\CCCCCCCC(=O)OC[C@H](COP(=O)(O)OCCN)OC(=O)CCCCCCC/C=C\CCCCCCCC [DOPE, 1,2-dioleoyl-sn-glycero-3-phosphoethanolamine]	1231	325	369	188	1419	19529	33465	38426	52995	44816
1,2-dimyristoyl-sn-glycerol, methoxypolyethylene glycol-2000 [DMG-PEG2000]	1121	1295	407	424	174	43788	56896	56833	42863	13109
CC(C)CCC[C@@H](C)[C@H]1CC[C@H]2[C@@H]3CC=C4C[C@@H](O)CC[C@]4(C)[C@H]3CC[C@]12C [Cholesterol, cholesterol]	1121	108	1229	428	535	18025	29028	35974	47647	57052
